Experimental data: US11974990B2, “TXNIP-TRX complex inhibitors and methods of using the same” (City of Hope, priority 2018, dated 2024)
“Also recorded” adds a separate entry of the source.

Key:
TXNIP-TRX complex = target: T1, TXNIP-TRX complex (Homo sapiens, UniProt Q9H3M7); experiment: Co-IP using extracts from high glucose treated THP1 cells in the presence of compounds; format: biochemical; details: extracts of THP1 cells treated with 25 mM glucose 3 days; compounds added to extract (5 uM)
T1 construct: Co-immunoprecipitation (Co-IP) of TXNIP with TRX in THP 1 monocytes cells treated with compounds under high glucose condition; endogenous in cells; host or cells: THP1 human monocytes cultured in 25 mM glucose
T1 sequence (Q9H3M7 1-391): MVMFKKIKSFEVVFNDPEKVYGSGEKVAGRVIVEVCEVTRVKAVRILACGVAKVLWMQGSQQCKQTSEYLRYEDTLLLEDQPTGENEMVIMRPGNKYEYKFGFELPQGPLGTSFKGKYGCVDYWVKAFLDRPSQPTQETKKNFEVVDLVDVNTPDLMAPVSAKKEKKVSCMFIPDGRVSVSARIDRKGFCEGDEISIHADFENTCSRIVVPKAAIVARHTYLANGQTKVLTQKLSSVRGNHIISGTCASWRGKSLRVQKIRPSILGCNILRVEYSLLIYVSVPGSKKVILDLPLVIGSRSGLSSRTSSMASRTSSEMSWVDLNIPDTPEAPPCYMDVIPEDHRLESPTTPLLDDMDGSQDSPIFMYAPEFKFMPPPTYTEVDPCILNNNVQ
Experimental: Assay 2: Co-IP using extracts from THP 1 cells treated high glucose and in the presence of compounds. In this assay, TXNIP is already highly expressed (because the cells are treated with HG), we assume there is high concentration of TXNIP/TRX complexes in the cell extract. Co-IPs were done in these extracts through adding TRX antibody and compounds. If a compound is able to break the (pre-formed) TXNIP/TRX complex, there will be a reduced signal (band intensity) in the assay.
Co-IP with THP1 high glucose treated extract in the presence of the compounds. THP1 cells were treated with 25 mM glucose for 3 days, the cell extract were prepared. Them 300 ul extract were used for TP. Compounds were added to 5 uM Co-IP were followed according to the Co-IP protocol.
1. Transfer the cultured cells from the culture dish to a 15-mL conical tube. 2. Centrifuge at 500×g for 2 min at 4° C. and remove the supernatant. 3. Wash with ice-cold PBS and centrifuge at 500×g for 2 min at 4° C. Remove the supernatant. 4. Repeat Step 3 twice.
5. Resuspend the cell pellet in ice-cold cell lysis buffer (1 mL per 1×10^7 cells) and incubate on ice for 10 min. 6. […]
Note: Pre-clearing the lysate is recommended to reduce the non-specific binding. However, if the protein is detected by western blotting, pre-clearing may not be necessary unless a contaminating protein is interfering with visualization of the protein of interest. […]

TNF-α mRNA = TNF-α mRNA expression (RT-PCR) in murine MIN6 pancreatic beta cells; format: cell-based; details: 25 mM glucose, 72 h (FIG. 11 right)
Experimental: FIG. 11. […] MIN6 cells were cultured in 25 mM glucose with C1 at uM concentrations for 72 h. Total RNA was prepared. RT-PCR was performed. Data shown are the mean+SEM from triplicates. Statistical analysis was performed for each column vs. HG DMSO using one-way ANOVA: *<0.0001.
RNA extraction and quantitative RT-PCR. RNA was extracted using the Direct-zol™ RNA MiniPrep Plus (Zymo Research). Reverse transcription of RNA samples into cDNA was performed using the GeneAmp RNA PCR Kit (Applied Biosystems), dNTP (from Roche Applied Science), Rnase inhibitor, MULV Reverse Transcriptase and Random hexamers reagent (all from Invitrogen). Diluted cDNA was quantified using real-time PCR performed with Power SYBR Green qPCR MasterMix (Applied Biosystem) and 7500 real-time PCR system (Applied Biosystems). The HPRT1 gene was used as an internal control.

CC(C)C(C(=O)O)N1C(=O)c2ccncc2C1=O (centres unmarked) [Compound C1, 2-(1,3-dioxo-1,3-dihydro-2H-pyrrolo[3,4-c]pyridin-2-yl)-3-methylbutanoic acid]
effect on pre-formed TXNIP/TRX complex (co-IP band intensity) (TXNIP-TRX complex): inhibit high glucose-induced TXNIP-TRX co-immunoprecipitation in cell extracts; also recorded: reproducibly can affect TXNIP/TRX complex
TNF-α mRNA levels (TNF-α mRNA): did not decrease TNF-α levels
